The text below walks through data of patent US20240207427A1, “SELECTIVE DRUG RELEASE FROM INTERNALIZED CONJUGATES OF BIOLOGICALLY ACTIVE COMPOUNDS” (priority 2021, published 2024).

Read-outs that look alike come from different tables or passages of the source.

Common to all, as to assay type: cell-based
In test [1] the test system is Hodgkin's lymphoma cells (L540cy). In words: In vitro potency (CellTiter-Glo, 96 h), L540cy. A digest of the protocol: (§1)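 Growth inhibition after 96 h at 37 °C with test article, measured by luminescence; cells in RPMI 1640, 20% FBS.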
(In general: Cellular ATP, detected with luciferase, serves as a proxy for viable cell number.)

For test [2], the system named is Ls174T cells. The experiment in a line: In vitro potency (CellTiter-Glo, 96 h), Ls174T. As to conditions: Homo sapiens, LS174T, CellTiter-Glo after 96 h exposure. Summed up:
(§2)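 Medium: RPMI 1640 + 20% FBS. Pre-seeding: 24 h. Treatment: ADC or CPT free drug serial dilutions, 96 h, 37 °C. Read-out: luminescence; IC50 in ng/mL and nmol/L.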

The subject of test [3] is anaplastic large cell lymphoma cells (DEL). In words: In vitro potency (CellTiter-Glo, 96 h), DEL. Summed up: as §1
The subject of test [4] is breast cancer cells (MDA-MB-231). In words: In vitro potency (CellTiter-Glo, 96 h), MDA-MB-231. As to conditions: Homo sapiens, MDA-MB-231, 96 h, CellTiter-Glo after 96 h exposure. A digest of the protocol:
as §1

Test [5] has as its system non-small-cell lung cancer cells (Calu1). The experiment in a line: In vitro potency (CellTiter-Glo, 96 h), Calu1. As to conditions: Homo sapiens, Calu-1, 96 h, read-out: IC50 (nmol/L) Calu1. A digest of the protocol: (§3)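 Antibody-drug conjugates, prepared as dilution series in culture medium, were added to cells seeded a day earlier in RPMI 1640 supplemented with 20% FBS. After four days at 37 °C, luminescence measured growth inhibition.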

Test [6] has as its system anaplastic large cell lymphoma cells (Karpas299). The experiment in a line: In vitro potency (CellTiter-Glo, 96 h), Karpas299. To be noted: Homo sapiens, KARPAS-299, 96 h, CellTiter-Glo after 96 h exposure. A digest of the protocol: as §1
The test system of test [7] is melanoma cells (A2058). The experiment in a line: In vitro potency (CellTiter-Glo, 96 h), A2058. To be noted: Homo sapiens, A2058, 96 h, read-out: IC50 (nmol/L) A2058. A digest of the protocol:
as §3

Test [8] has as its system anaplastic large cell lymphoma cells (DELBVR). In words: In vitro potency (CellTiter-Glo, 96 h), DELBVR. Summed up: as §1
The test system of test [9] is renal carcinoma cells (786-O). In words: In vitro potency (CellTiter-Glo, 96 h), 786-O. To be noted: Homo sapiens, 786-0, 96 h, CellTiter-Glo after 96 h exposure. A digest of the protocol: as §1
In test [10] the test system is acute myeloid leukemia cells (MOLM-13). The experiment in a line: In vitro potency (CellTiter-Glo, 96 h), MOLM-13. To be noted: Homo sapiens, MOLM-13, 96 h, CellTiter-Glo after 96 h exposure. A digest of the protocol: as §2
Test [11] concerns B-lymphocyte cancer cells (SU-DHL4). In words: In vitro potency (CellTiter-Glo, 96 h), SU-DHL-4. As to conditions: Homo sapiens, SU-DHL-4, 96 h, CellTiter-Glo after 96 h exposure. Summed up: as §1
The subject of test [12] is pancreatic cancer cells (BxPC3). The experiment in a line: In vitro potency (CellTiter-Glo, 96 h), BxPC3. To be noted: Homo sapiens, BXPC-3, 96 h, CellTiter-Glo after 96 h exposure. A digest of the protocol: as §2
Setting [13] is: read-out: IC50 (nmol/L) L540cy, CPT free drugs, Table 24, CellTiter-Glo after 96 h exposure.
Setting [14] is: 96 h, read-out: IC50 (nmol/L) Ls174T, CPT free drugs, Table 24.
Where [15] appears, read: read-out: IC50 (nmol/L) DEL, CPT free drugs, Table 24, CellTiter-Glo after 96 h exposure.
[16] abbreviates: read-out: IC50 (nmol/L) MDAMB231, CPT free drugs, Table 24.
The mark [17] stands for this setting: read-out: IC50 (nmol/L) Karpas299, CPT free drugs, Table 24.
[18] abbreviates: read-out: IC50 (nmol/L) DELBVR, CPT free drugs, Table 24, CellTiter-Glo after 96 h exposure.
[19] abbreviates: read-out: IC50 (nmol/L) 786-O, CPT free drugs, Table 24.
The mark [20] stands for this setting: read-out: IC50 (nmol/L) MOLM-13, CPT free drugs, Table 24.
Where [21] appears, read: read-out: IC50 (nmol/L) SU-DHL-4, CPT free drugs, Table 24.
[22] abbreviates: read-out: IC50 (nmol/L) BxPC3, CPT free drugs, Table 24.
Setting [23] is: CPT free drugs, Table 24, CellTiter-Glo after 96 h exposure, read-out: IC50 (nmol/L) L540cy.
[24] abbreviates: CPT free drugs, Table 24, read-out: IC50 (nmol/L) Ls174T.
Setting [25] is: CPT free drugs, Table 24, CellTiter-Glo after 96 h exposure, read-out: IC50 (nmol/L) DEL.
[26] abbreviates: CPT free drugs, Table 24, read-out: IC50 (nmol/L) MDAMB231.
[27] abbreviates: CPT free drugs, Table 24, CellTiter-Glo after 96 h exposure.
The mark [28] stands for this setting: CPT free drugs, Table 24, read-out: IC50 (nmol/L) Karpas299.
Where [29] appears, read: CPT free drugs, Table 24, CellTiter-Glo after 96 h exposure, read-out: IC50 (nmol/L) DELBVR.
The mark [30] stands for this setting: CPT free drugs, Table 24, read-out: IC50 (nmol/L) 786-O.
Where [31] appears, read: CPT free drugs, Table 24, read-out: IC50 (nmol/L) MOLM-13.
Where [32] appears, read: CPT free drugs, Table 24, read-out: IC50 (nmol/L) SU-DHL-4.
[33] abbreviates: CPT free drugs, Table 24, read-out: IC50 (nmol/L) BxPC3.

With `CC[C@@]1(O)C(=O)OCc2c1cc1n(c2=O)Cc2c-1nc1cc(F)c(C)c(F)c1c2CN` [Compound 2j], the IC50 turned out to be 1 nmol/L in [1] (setting [13]); 3 nmol/L in test [2] (setting [14]); 1 nmol/L in [3] (setting [15]); 2 nmol/L in test [4] (setting [16]); 23 nmol/L in [5]; 2 nmol/L in test [6] (setting [17]). The IC50 amounted to 2 nmol/L in [7]; 1 nmol/L in [8] (setting [18]); 3 nmol/L in test [9] (setting [19]); 9 nmol/L in test [10] (setting [20]); 2 nmol/L in test [11] (setting [21]); 9 nmol/L in test [12] (setting [22]).
With `CC[C@@]1(O)C(=O)OCc2c1cc1n(c2=O)Cc2c-1nc1cc(Br)c(C)c(F)c1c2CN` [Compound 2k], the IC50 in [1] (setting [23]) was found to be 4 nmol/L; in test [2] (setting [24]) it was 11.9 nmol/L; in test [3] (setting [25]) it was 3.5 nmol/L; in test [4] (setting [26]) it was 8 nmol/L; in [5] (setting [27]) it was 81 nmol/L; in [6] (setting [28]), 14 nmol/L. The IC50 was determined as 4 nmol/L in [7] (setting [27]); 3.3 nmol/L in test [8] (setting [29]); 5 nmol/L in [9] (setting [30]); 58 nmol/L in test [10] (setting [31]); 4 nmol/L in test [11] (setting [32]); 42 nmol/L in test [12] (setting [33]).
Consider `CC[C@@]1(O)C(=O)OCc2c1cc1n(c2=O)Cc2c-1nc1cc(F)c(F)cc1c2CN` [Compound 2l], for which the IC50 in [1] (setting [23]) was found to be 4 nmol/L; in test [2] (setting [24]), 8.1 nmol/L; in test [3] (setting [25]) it was 3.3 nmol/L; in test [4] (setting [26]), 8 nmol/L; in test [5] (setting [27]) it was 42 nmol/L; in test [6] (setting [28]), 8 nmol/L. Besides, the IC50 in test [7] (setting [27]) is 4 nmol/L; in test [8] (setting [29]), 2.1 nmol/L; in test [9] (setting [30]), 15 nmol/L; in test [10] (setting [31]), 16 nmol/L; in [11] (setting [32]), 4 nmol/L; in [12] (setting [33]), 35 nmol/L.
Consider `CC[C@@]1(O)C(=O)OCc2c1cc1n(c2=O)Cc2c-1nc1cc3c(cc1c2CN)OCC3` [Compound 2m], for which the IC50 came to 17.8 nmol/L in [1] (setting [13]); 17 nmol/L in test [2] (setting [14]); 11 nmol/L in test [3] (setting [15]); 35 nmol/L in test [4] (setting [16]); 249 nmol/L in [5]; 57.2 nmol/L in test [6] (setting [17]). In addition, the IC50 came out at 16.2 nmol/L in test [7]; 14 nmol/L in test [8] (setting [18]); 55 nmol/L in [9] (setting [19]); 60.7 nmol/L in [10] (setting [20]); 22.4 nmol/L in test [11] (setting [21]); 128 nmol/L in test [12] (setting [22]).
